Results reported in patent publication US10703698B2, “Compounds which activate estrogen receptors and compositions and methods of using the same” (The Board of Trustees of the University of Illinois, priority 2016, dated 2020).
“Also recorded” adds a separate entry of the source.

Tests used:
MCF-7 cells = test: RNA-Seq of MCF-7 cells treated with OA with and without PaPE-1; assay type: cell-based, human
Experimental: FIG. 38. Identification of genes induced by OA and PaPE-1's effect on the gene regulation. (A) RNA-Seq analysis of gene expression changes induced by OA and OA+PaPE1. Heat map of the genes with significant changed expression. MCF-7 cells were treated with Veh or 100 nM OA with and without 1 μM PaPE-1 for 24 h. RNA was isolated and RNA-Seq was performed using 2 samples from each treatment group. Differentially regulated genes were determined with p<0.05 and expression fold change >2. (B) Clusters from A. regulated by OA and reversed by PaPE-1. The average gene expression level of the cluster1 (C1) and 2 (C2) identified as PaPE-1 regulated high-fat genes. In C1, there are 425 genes whose expression were found stimulated in OA but not in the OA+PaPE-1 treatment. In C2, there are 646 genes whose expression were found suppressed in the OA but restored by OA+PaPE-1 treatment. (C) Venn diagram analysis. […] (D) Examples of OA-regulated genes. Some of the top functions of the involved genes are presented.

mTOR and MAPK signaling = test: Western blot of signaling pathway activation in MCF-7 cells; assay type: cell-based, human
Description: Western blot analysis used specific antibodies for ERα (HC-20, Santa Cruz); ERK2 (D-2, Santa Cruz); and pS^6, pS6K, pmTOR, pRAPTOR, pRICTOR, pMAPK (Cell Signaling). Coimmunoprecipitation assays used antibodies for SRC3 (Santa Cruz, C-20) and ERα (Santa Cruz, F10).

Cc1cc(-c2ccc3c(c2)CCC3O)cc(C)c1O (racemic) [Compound 2, 5-(4-hydroxy-3,5-dimethylphenyl)-2,3-dihydro-1H-inden-1-ol]
cluster C1: genes stimulated in OA but not in OA+PaPE-1 (MCF-7 cells): 425 genes | cluster C2: genes suppressed in OA but restored by OA+PaPE-1 (MCF-7 cells): 646 genes | OA-downregulated genes whose expression was restored by PaPE-1 (MCF-7 cells; 1 μM PaPE-1): about 60% | OA-upregulated genes whose activation was blocked by PaPE-1 (MCF-7 cells; 1 μM PaPE-1): 80% | Serl 18 phosphorylation of ERα (mTOR and MAPK signaling): did not induce any detectable | activation of mTOR, MAPK (and AKT) signaling (mTOR and MAPK signaling; listed as PaPE-1): very efficient in activating mTOR and MAPK signaling; also recorded: selectively activated mTOR and MAPK signaling
